Laboratory results taken from patent publication US8642510B2, “Inhibitors for brassinosteroid signalling” (GMI-Gregor Mendel-Institut fuer Molekulare Pflanzenbiologie …, priority 2008, dated 2014).
“Also recorded” adds a separate entry of the source.

Assays:
[1] = system: bri1-1 mutant seedlings; experiment: Physiological test, phenotype rescue of brassinosteroid signalling mutant bri1-1; format: in vivo, Arabidopsis thaliana; details: 30 μM in medium, 7 days
Procedure: FIG. 3: Effects on the phenotype of brassinosteroid mutants. 7-day-old seedlings of the brassinosteroid synthesis mutant cpd and signalling mutant bri1-1 were transferred to MS medium containing 1 μM epi-brassinolide (Epi-BL) or compounds 10 and 15 at a concentration of 30 μM and incubated for 7 days under long day conditions. All pictures were taken at the same magnification. The bar represents 1 mm.
Arabidopsis thaliana Co10 or bri1-1 seedlings were grown in vitro on ½ MS plates containing 1% sucrose in a growth camber under long day conditions (16 h light with 50 μE·m^−2·s^−1, 8 h dark) for 7 days. Subsequently, they were transferred to plates supplemented with inhibitors at different concentrations and effects on the phenotype were observed 7 days later.
Downregulation of ASK activity is crucial in brassinosteroid signalling. ASKs are constitutively active in cpd and bril-1 mutants, which are defective in brassinosteroid biosynthesis or signalling, respectively. This leads to severely dwarfed plants with dark green downward curled leaves and shortened hypocotyls. […] To screen for in vivo potency, cpd and bril-1 mutants were transferred to media containing 4-[(5-bromo-2-pyridinyl)amino]-4-oxobutanoic acid derivatives at a concentration of 30 μM. […] The potency to rescue the phenotype correlated with the results of the in vitro assay.

[2] = HPLC-analysis of plant extracts (fate of compound in planta); format: in vivo, A. thaliana; details: seedlings infiltrated, HPLC of extracts after 15 min
Procedure: FIG. 5: Estrified compounds are rapidly hydrolysed in planta. A. thaliana seedlings were infiltrated with ½MS medium containing 50 μM compound 10. Control samples were taken before infiltration (A) and analysed by HPLC. A biotransformation product (marked P) of compound 10 could be observed after 15 min (B). A chromatogram of a mixture of compounds 10, 15, and 17 (labelled with C10, C15 and C17, respectively) is shown for comparison (C). The small boxes inserted into the chromatograms show the UV spectra of the peaks in the range of 220 to 360 nm. mAU, milli absorption units recorded at 250 nm.
Two-week-old A. thaliana Co10 seedlings were vacuum infiltrated with ½MS or ½MS containing […] compound 10 as described previously (Rozhon et al., 2005). After 15 min and after 48 h samples were taken, rinsed with water and ground in liquid nitrogen to a fine powder. 100 mg powder were weighed into a reaction tube and 1 ml extraction buffer (20 mM TRIS/HCl pH6.8 dissolved in 20% acetonitrile) was added. […] The extracts were analysed by HPLC with the same settings as mentioned above.
To investigate these conflicting results, the fate of compound 10 in vivo was investigated. Seedlings were infiltrated with compound 10 and plant extracts subsequently analysed by HPLC. […]

[3] = Determination of pKa values; details: pH5.8, the pH of the medium
Procedure: Fifty to 100 mg compound were weighed and dissolved in 50 ml 50% (v/v) methanol. A titration curve with 50 mM NaOH as standard solution was recorded with a Greisinger electonics GPHR 1400A pH meter. The equivalence point was determined by the difference quotient method (ΔpH/ΔVNaOH) and the pKa read from the titration curve at 50% neutralisation.

[4] = system: ASKs (A. thaliana GSK-3/Shaggy-like kinases); experiment: In vitro kinase assay, GST-ASK fusion proteins with MBP and γ-[32P]-ATP; format: biochemical, Arabidopsis thaliana; details: compounds at 10 μM; result in words
Procedure: GST-ASK fusion proteins were incubated with MBP as substrate and γ-[32P]-ATP as co-substrate in the absence (−) or presence of different derivatives (the numbers correspond to Table 1). […] The compounds were used at a concentration of 10 μM. The proteins were separated by SDS-PAGE and the incorporated radioactive phosphate detected with a storage phosphor imager screen.
ASKs were expressed as GST-fusion proteins in E. coli BL21. In vitro kinase assays were performed by incubating 50 ng GST-fusion protein, 10 μg myelin basic protein (MBP; Sigma, St Louis, Mo.) as substrate and 0.15 MBq γ-[32P]-ATP as co-substrate at 25° C. for 30 min. The reaction buffer consisted of 20 mM HEPES pH7.4, 15 mM MgCl2, 5 mM EGTA and 1 mM DTT. For initial experiments cold ATP was included at concentrations up to 3 μM. The reaction products were separated by SDS-PAGE and the amount of radioactivity incorporated into MBP quantified using an Amersham storage phosphor imager screen and a Biorad Molecular Imager FX. In vivo kinase activity was detected by phosphorylation band-shift assays using BZR1-CFP as substrate.
Representatives of all groups were expressed as recombinant GST fusion proteins in E. coli.

## COC(=O)CCC(=O)Nc1ccc(I)cn1 [Compound 10, 4-[(5-iodopyrid-2-yl)amino]-4-oxobutanoic acid methyl ester]
[1]
  Rescue of bri1-1 mutant phenotype: highly active in vivo
[2]
  Stability in planta (hydrolysis of methyl ester to free acid): not stable in vivo but rapidly converted; also recorded: rapidly cleaved off
[3]
  Portion undissociated / lipophilic, capable of diffusion through the membrane: 100%
[4]
  Inhibition of ASKs in vitro (MBP phosphorylation): dramatically reduced inhibitory effects; also recorded: little potency in vitro; also recorded: little or no activity
